# According to patent publication US20240000791A1, “Methods of Using 4-Amino-N-[4-(Methoxymethyl)Phenyl]-7-(1-Methylcyclopropyl)-6-(3-Morpholinoprop-1-YN-1-YL)-7H-Pyrrolo[2,3-D]Pyrimidine-5-Carboxamide for the Treatment of Tumors” (Helsinn Healthcare SA, priority 2020, published 2024):
# Like-named read-outs stand apart in the source and are kept apart here.
# Experiments:
# FLT3 = target: T1, FLT3 (Homo sapiens, UniProt P36888); assay: Kinase inhibition; format: biochemical
# T1 sequence (P36888 27-993): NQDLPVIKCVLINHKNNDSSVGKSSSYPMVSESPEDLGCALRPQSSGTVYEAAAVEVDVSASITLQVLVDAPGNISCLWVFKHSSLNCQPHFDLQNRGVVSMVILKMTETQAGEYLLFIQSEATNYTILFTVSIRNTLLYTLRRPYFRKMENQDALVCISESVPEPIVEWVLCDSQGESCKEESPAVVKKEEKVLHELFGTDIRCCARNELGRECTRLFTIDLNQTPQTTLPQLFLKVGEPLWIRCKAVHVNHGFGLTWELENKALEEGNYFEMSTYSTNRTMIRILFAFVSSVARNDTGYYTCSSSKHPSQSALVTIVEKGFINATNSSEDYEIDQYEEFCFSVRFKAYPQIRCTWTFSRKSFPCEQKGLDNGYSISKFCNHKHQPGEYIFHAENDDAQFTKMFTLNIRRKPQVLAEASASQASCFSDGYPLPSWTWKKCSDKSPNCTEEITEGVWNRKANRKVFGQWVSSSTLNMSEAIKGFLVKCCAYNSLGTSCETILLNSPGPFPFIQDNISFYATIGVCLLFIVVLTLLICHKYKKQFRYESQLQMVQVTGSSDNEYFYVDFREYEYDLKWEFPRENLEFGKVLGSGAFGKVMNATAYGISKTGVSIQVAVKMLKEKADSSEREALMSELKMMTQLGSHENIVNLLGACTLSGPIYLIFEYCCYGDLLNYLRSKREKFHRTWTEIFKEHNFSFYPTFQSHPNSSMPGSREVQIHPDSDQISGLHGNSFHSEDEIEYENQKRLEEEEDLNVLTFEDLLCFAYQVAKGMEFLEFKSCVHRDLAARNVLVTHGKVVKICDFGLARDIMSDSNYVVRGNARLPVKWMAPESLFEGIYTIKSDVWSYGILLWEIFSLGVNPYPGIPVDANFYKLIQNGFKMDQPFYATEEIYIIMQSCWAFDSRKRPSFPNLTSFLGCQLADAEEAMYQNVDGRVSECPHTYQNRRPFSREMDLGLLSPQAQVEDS
# FGFR2 = FGFR2 (Homo sapiens, UniProt P21802); assay: Kinase inhibition; format: biochemical
# Chain of FGFR2 (P21802 22-821): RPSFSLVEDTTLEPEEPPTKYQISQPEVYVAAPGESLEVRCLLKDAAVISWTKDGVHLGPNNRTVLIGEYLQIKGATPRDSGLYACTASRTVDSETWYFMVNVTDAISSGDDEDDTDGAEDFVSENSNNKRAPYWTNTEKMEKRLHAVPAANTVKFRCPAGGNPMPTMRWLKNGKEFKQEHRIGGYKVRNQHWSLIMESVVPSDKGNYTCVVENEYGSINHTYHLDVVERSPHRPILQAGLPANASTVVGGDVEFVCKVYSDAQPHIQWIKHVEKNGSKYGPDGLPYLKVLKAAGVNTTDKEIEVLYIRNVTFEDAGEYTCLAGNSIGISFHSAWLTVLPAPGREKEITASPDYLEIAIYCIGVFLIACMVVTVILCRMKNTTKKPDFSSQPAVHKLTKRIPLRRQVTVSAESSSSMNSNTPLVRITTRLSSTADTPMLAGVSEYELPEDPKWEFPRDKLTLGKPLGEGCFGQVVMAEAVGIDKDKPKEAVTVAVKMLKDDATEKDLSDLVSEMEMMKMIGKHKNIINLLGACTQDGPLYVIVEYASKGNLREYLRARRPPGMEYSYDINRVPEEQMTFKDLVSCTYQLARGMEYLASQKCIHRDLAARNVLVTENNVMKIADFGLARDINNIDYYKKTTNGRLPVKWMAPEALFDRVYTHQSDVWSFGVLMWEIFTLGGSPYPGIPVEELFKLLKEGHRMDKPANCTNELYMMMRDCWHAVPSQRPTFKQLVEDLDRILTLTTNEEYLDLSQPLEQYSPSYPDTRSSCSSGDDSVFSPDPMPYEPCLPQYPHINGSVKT
# DDR1 = DDR1 (Homo sapiens, UniProt Q08345); assay: Kinase inhibition; format: biochemical
# DDR2 = target: T2, DDR2 (Homo sapiens, UniProt Q16832); assay: Kinase inhibition; format: biochemical
# T2 sequence (Q16832 22-855): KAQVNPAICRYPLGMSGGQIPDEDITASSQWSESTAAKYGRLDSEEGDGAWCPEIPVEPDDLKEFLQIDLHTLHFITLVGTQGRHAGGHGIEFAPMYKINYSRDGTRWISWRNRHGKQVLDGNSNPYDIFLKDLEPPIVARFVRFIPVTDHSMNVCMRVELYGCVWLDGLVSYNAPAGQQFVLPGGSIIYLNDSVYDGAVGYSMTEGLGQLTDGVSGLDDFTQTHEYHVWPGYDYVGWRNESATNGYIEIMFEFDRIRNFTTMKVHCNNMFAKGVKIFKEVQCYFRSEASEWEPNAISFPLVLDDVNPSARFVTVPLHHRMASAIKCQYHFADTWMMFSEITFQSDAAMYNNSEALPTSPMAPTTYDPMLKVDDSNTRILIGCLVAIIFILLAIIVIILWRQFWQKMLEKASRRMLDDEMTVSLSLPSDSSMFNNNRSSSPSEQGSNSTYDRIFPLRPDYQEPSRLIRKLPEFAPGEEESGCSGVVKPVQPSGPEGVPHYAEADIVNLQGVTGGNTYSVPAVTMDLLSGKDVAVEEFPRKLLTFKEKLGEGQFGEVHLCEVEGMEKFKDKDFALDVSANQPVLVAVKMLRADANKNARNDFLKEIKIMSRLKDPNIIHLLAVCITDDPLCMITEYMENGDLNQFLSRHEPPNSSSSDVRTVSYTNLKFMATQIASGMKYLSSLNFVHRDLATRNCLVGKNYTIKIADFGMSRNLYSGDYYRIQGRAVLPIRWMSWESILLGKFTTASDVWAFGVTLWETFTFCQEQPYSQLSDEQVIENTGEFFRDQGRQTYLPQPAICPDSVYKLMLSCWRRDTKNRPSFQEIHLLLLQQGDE
# [1] = system: Ba/F3 KIF5B-RET^G810R cells; assay: Ba/F3 KIF5B-RET G810R subcutaneous tumor model, first study; format: in vivo, mouse; details: 14 days; for tumor regrowth at the end of the study: 30 mg/kg bid oral
# JAK1 = JAK1 (Homo sapiens, UniProt P23458); assay: Kinase inhibition; format: biochemical
# JAK2 = JAK2 (Homo sapiens, UniProt O60674); assay: Kinase inhibition; format: biochemical
# Chain of JAK2 (O60674 whole entry): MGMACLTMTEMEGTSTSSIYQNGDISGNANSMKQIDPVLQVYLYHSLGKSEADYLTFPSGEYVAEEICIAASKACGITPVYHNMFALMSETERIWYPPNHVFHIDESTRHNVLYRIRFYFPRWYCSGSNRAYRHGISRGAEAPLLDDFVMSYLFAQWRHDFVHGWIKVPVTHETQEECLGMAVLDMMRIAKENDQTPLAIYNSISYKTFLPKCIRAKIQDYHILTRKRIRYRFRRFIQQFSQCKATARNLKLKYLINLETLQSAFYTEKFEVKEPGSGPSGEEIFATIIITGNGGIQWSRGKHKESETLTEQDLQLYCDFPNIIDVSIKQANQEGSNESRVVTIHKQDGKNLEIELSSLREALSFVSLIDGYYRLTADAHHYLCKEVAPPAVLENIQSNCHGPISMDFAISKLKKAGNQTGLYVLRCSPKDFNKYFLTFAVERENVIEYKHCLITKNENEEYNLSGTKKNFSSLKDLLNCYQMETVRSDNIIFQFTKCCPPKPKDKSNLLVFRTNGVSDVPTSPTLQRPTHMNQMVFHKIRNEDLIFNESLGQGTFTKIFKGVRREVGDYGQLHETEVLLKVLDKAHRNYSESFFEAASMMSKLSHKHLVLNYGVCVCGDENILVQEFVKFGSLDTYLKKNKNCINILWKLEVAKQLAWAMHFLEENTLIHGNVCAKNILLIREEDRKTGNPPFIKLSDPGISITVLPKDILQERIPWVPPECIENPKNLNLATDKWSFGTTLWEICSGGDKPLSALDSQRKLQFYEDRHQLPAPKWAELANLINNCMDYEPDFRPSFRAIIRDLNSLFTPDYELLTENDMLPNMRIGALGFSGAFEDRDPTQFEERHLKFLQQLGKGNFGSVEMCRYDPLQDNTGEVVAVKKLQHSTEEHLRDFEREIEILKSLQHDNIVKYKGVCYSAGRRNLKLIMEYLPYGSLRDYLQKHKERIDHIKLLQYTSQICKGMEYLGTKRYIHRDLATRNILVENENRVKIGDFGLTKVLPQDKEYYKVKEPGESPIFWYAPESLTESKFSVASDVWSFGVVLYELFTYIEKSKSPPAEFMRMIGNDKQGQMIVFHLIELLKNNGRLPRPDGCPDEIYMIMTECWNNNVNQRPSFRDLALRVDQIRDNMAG
# Ba/F3 KIF5B-RET G810S = assay: Cell viability CellTiter-Glo 2.0; format: cell-based; details: Mus musculus, read-out: GI50 values
# PDGFRα = PDGFRα (Homo sapiens, UniProt P16234); assay: Kinase inhibition; format: biochemical
# FGFR1 = FGFR1 (Homo sapiens, UniProt P11362); assay: Kinase inhibition; format: biochemical
# Ba/F3 KIF5B-RET V804M = assay: Cell viability CellTiter-Glo 2.0; format: cell-based; details: Mus musculus, read-out: GI50 values
# PDGFRβ = PDGFRβ (Homo sapiens, UniProt P09619); assay: Kinase inhibition; format: biochemical
# Chain of PDGFRβ (P09619 33-1106): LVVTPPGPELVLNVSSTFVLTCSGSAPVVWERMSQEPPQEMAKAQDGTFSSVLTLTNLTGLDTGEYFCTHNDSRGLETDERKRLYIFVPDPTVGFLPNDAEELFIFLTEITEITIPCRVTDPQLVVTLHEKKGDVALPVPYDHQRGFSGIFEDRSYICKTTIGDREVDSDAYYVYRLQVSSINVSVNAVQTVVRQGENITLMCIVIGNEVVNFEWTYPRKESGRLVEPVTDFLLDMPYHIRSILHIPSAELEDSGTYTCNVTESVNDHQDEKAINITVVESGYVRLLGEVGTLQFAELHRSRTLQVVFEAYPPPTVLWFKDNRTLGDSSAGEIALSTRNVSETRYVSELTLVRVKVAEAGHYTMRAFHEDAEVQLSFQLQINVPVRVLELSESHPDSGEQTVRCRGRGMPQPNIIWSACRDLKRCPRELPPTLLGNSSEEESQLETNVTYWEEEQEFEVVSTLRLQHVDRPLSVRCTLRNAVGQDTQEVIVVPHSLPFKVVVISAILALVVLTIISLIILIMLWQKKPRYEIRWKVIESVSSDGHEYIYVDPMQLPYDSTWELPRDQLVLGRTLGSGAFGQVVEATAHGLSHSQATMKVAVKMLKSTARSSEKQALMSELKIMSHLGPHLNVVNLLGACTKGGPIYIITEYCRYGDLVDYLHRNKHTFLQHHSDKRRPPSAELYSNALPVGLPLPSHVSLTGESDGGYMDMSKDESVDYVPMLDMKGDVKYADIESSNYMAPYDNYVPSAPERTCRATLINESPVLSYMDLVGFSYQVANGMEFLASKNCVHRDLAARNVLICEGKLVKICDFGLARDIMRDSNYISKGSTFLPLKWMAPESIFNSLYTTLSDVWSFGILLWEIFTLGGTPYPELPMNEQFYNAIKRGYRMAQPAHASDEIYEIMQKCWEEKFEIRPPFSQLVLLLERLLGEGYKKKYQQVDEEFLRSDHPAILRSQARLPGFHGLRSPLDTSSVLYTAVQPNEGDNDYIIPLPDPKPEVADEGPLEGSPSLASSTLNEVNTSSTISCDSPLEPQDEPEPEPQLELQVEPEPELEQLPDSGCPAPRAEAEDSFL
# FGFR3 = FGFR3 (Homo sapiens, UniProt P22607); assay: Kinase inhibition; format: biochemical
# Chain of FGFR3 (P22607 23-806): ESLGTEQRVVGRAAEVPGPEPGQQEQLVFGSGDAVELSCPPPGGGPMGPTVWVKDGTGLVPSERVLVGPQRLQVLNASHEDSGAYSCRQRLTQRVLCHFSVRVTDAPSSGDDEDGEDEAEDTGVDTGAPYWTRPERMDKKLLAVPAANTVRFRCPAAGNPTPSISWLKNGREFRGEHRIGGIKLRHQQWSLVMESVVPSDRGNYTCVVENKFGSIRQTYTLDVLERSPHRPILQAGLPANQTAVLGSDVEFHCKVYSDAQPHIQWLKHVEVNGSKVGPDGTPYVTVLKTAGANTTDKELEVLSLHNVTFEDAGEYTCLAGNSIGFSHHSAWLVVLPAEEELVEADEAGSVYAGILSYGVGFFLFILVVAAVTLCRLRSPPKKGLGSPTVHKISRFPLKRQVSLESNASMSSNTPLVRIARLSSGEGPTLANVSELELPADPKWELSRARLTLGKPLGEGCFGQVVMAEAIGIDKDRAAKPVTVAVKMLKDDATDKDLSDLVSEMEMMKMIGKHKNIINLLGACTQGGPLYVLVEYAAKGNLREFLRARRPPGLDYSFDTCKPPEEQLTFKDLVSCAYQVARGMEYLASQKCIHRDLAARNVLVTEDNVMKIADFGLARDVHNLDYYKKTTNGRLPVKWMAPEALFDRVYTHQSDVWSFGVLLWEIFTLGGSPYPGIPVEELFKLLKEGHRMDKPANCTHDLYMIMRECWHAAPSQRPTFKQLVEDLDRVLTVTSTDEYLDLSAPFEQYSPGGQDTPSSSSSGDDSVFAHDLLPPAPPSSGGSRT
# FLT4 = FLT4 (Homo sapiens, UniProt P35916); assay: Kinase inhibition; format: biochemical
# Chain of FLT4 (P35916 25-1363): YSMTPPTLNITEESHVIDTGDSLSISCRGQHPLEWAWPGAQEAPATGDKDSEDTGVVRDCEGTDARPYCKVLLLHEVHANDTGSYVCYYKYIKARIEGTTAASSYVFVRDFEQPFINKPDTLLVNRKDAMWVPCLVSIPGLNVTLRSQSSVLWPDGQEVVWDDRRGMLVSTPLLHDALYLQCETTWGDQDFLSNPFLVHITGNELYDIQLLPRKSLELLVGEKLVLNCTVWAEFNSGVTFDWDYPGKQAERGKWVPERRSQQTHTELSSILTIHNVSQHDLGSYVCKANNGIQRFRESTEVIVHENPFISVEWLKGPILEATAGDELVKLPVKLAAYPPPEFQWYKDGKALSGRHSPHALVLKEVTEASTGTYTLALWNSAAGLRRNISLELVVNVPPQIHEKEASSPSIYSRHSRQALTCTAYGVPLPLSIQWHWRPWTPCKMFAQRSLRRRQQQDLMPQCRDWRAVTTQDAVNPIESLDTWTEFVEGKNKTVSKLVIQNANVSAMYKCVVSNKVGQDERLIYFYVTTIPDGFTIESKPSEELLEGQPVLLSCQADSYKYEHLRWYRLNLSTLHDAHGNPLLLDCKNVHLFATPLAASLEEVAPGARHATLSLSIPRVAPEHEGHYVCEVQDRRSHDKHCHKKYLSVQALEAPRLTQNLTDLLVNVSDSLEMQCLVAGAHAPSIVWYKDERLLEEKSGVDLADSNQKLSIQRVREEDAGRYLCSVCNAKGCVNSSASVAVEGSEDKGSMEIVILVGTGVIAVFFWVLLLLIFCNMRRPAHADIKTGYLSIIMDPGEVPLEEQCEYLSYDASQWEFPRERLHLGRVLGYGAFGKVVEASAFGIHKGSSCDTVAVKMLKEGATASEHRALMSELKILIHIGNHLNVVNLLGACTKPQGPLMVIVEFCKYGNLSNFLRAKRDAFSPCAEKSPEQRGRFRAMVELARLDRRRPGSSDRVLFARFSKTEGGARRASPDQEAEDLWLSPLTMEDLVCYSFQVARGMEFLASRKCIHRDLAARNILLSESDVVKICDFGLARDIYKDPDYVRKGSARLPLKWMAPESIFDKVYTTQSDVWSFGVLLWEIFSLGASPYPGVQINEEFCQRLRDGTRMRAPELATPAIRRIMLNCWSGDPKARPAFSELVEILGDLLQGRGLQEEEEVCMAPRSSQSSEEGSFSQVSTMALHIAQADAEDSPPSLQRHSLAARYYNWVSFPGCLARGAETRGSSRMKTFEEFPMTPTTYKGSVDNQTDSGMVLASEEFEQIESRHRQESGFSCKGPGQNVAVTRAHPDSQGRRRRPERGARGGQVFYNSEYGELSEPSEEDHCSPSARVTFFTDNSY
# [2] = system: Ba/F3 KIF5B-RET^G810R cells; assay: Ba/F3 KIF5B-RET G810R subcutaneous tumor model, second study; format: in vivo, mouse; details: for tumor regrowth: 30 mg/kg bid, day 15
# [3] = read-out: IC50 kinase inhibition, FLT3
# [4] = read-out: IC50 kinase inhibition, FGFR2
# [5] = read-out: IC50 kinase inhibition, DDR1
# [6] = read-out: IC50 kinase inhibition, DDR2
# [7] = read-out: IC50 kinase inhibition, JAK1
# [8] = read-out: IC50 kinase inhibition, JAK2
# [9] = read-out: IC50 kinase inhibition, PDGFRα
# [10] = read-out: IC50 kinase inhibition, FGFR1
# [11] = read-out: IC50 kinase inhibition, PDGFRβ
# [12] = read-out: IC50 kinase inhibition, FGFR3
# [13] = read-out: IC50 kinase inhibition, FLT4
SMILES,tumor regrowth at the end of the study [1],"GI50 (Ba/F3 KIF5B-RET G810S; BaF3, 72 h)","GI50 (Ba/F3 KIF5B-RET V804M; BaF3, 72 h)",IC50 (FLT3; [3]),IC50 (FGFR2; [4]),IC50 (DDR1; [5]),IC50 (DDR2; [6]),IC50 (JAK1; [7]),IC50 (JAK2; [8]),IC50 (PDGFRα; [9]),IC50 (FGFR1; [10]),IC50 (PDGFRβ; [11]),IC50 (FGFR3; [12]),IC50 (FLT4; [13]),tumor regrowth [2],other results
"COCc1ccc(NC(=O)c2c(C#CCN3CCOCC3)n(C3(C)CC3)c3ncnc(N)c23)cc1 [HM06/TAS0953, 4-amino-N-(4-(methoxymethyl)phenyl)-7-(1-methylcyclopropyl)-6-(3-morpholinoprop-1-yn-1-yl)-7H-pyrrolo[2,3-d]pyrimidine-5-carboxamide]",did not show tumor regrowth,11.9 ± 3.6 nM,39.7 ± 4.6 nM,–,–,–,–,–,–,–,–,–,–,–,–,IC50 (FLT3): 911 nM; IC50 (FGFR2): 1850 nM; IC50 (DDR1): 1190 nM; IC50 (DDR2): > 3000 nM; tumor volume at the end of the study vs control ([1]; 10 mg/kg bid oral): significantly decreased tumor volume; IC50 (JAK1): > 3000 nM; IC50 (JAK2): > 3000 nM; IC50 (PDGFRα): 735 nM; IC50 (FGFR1): 2720 nM; IC50 (PDGFRβ): 2760 nM; IC50 (FGFR3): 2150 nM; IC50 (FLT4): 150 nM; mean tumor volume on day 15 vs LOXO-292 and BLU-667 30 mg/kg bid ([2]; 50 mg/kg bid): significantly lower in the HM06/TAS0953 group than in the LOXO-292 and BLU-667 groups; tumor regression ([2]; 50 mg/kg bid): consistent tumor regression
"CO[C@]1(C(=O)N[C@@H](C)c2ccc(-n3cc(F)cn3)nc2)CC[C@H](c2nc(C)cc(Nc3cc(C)[nH]n3)n2)CC1 [BLU-667, pralsetinib]",trend to tumor regrowth,–,–,11 nM,35 nM,7.1 nM,7.7 nM,2.6 nM,1.1 nM,12 nM,15 nM,7.7 nM,58 nM,6.3 nM,trend to tumor regrowth at day 15,"GI50 (Ba/F3 KIF5B-RET G810S; BaF3, Ba/F3 KIF5B-RET G810S, 72 hours, mean±SD of three experiments): 50.6 ± 31.4 nM; GI50 (Ba/F3 KIF5B-RET V804M; BaF3, Ba/F3 KIF5B-RET V804M, 72 hours, mean±SD of three experiments): 8.6 ± 0.58 nM"
"COc1ccc(CN2C3CC2CN(c2ccc(-c4cc(OCC(C)(C)O)cn5ncc(C#N)c45)cn2)C3)cn1 [LOXO-292, selpercatinib]",trend to tumor regrowth,166 ± 20 nM,33.3 ± 2.9 nM,22 nM,34 nM,103 nM,417 nM,> 3000 nM,> 3000 nM,44 nM,64 nM,67 nM,51 nM,4 nM,trend to tumor regrowth at day 15,–
